Experimental data published in ChEMBL document CHEMBL5113438, “Discovery of highly potent and selective CRBN-recruiting EGFRL858R/T790M degraders in vivo” (Eur J Med Chem, 2022).

How the values were obtained:
[1] = test system: NCI-H1299; assay: Induction of apoptosis in human NCI-H1299 cells assessed as late apoptotic cells at 1.0 uM incubated for 48 hrs by AnnexinV-FITC/propidium iodide staining based flow cytometry analysis (reference value: 1.53 % ); assay type: functional
[2] = test system: HCC827; assay: Antiproliferative activity against human NCI-HCC827 cells expressing EGFR del19 incubated for 72 hrs by CCK-8 assay; assay type: functional, cell-based; details: HCC827, 72 h
[3] = test system: NCI-H1975; assay: Induction of apoptosis in human NCI-H1975 cells assessed as viable cells at 0.1 uM incubated for 48 hrs by AnnexinV-FITC/propidium iodide staining based flow cytometry analysis (reference value: 96.2 % ); assay type: functional; details: read-out: Activity
[4] = AUC (0 to t) in Sprague-Dawley rat at 10 mg/kg, ip measured upto 24 hrs by LC-MS/MS analysis; assay type: ADME, organism-based; design: dose 10 mg/kg, time < 24 hrs, route ip; details: in vivo
[5] = test system: HMEC; assay: Cytotoxicity activity against HMEC cells upto 300 uM incubated for 72 hrs by CCK-8 assay; assay type: toxicity, cell-based; details: human
[6] = test system: NCI-H1299; assay: Induction of apoptosis in human NCI-H1299 cells assessed as viable cells at 0.1 uM incubated for 48 hrs by AnnexinV-FITC/propidium iodide staining based flow cytometry analysis (reference value: 98.05 % ); assay type: functional; details: read-out: Activity
[7] = test system: NCI-H1975; assay: Induction of apoptosis in human NCI-H1975 cells assessed as necrotic cells at 0.1 uM incubated for 48 hrs by AnnexinV-FITC/propidium iodide staining based flow cytometry analysis (reference value: 3.28 % ); assay type: functional
[8] = Cmax in Sprague-Dawley rat at 10 mg/kg, ip measured upto 24 hrs by LC-MS/MS analysis; assay type: ADME, organism-based; design: time < 24 hrs, dose 10 mg/kg, route ip; details: in vivo
[9] = test system: NCI-H1299; assay: Induction of apoptosis in human NCI-H1299 cells assessed as early apoptotic cells at 1.0 uM incubated for 48 hrs by AnnexinV-FITC/propidium iodide staining based flow cytometry analysis (reference value: 0.11 % ); assay type: functional
[10] = Clearance in Sprague-Dawley rat at 1 mg/kg, iv measured upto 24 hrs by LC-MS/MS analysis; assay type: ADME, organism-based; details: in vivo
[11] = test system: NCI-H1975; assay: Antiproliferative activity against human NCI-H1975 cells expressing EGFR L858R/T790M incubated for 72 hrs by CCK-8 assay; assay type: functional, cell-based; details: NCI-H1975, 72 h
[12] = test system: Epidermal growth factor receptor (Homo sapiens), P00533 [L858R,T790M]; assay: Inhibition of EGFR L858R/T790M mutant phosphorylation in human NCI-H1975 cells at 1 uM measured after 8 hrs by Western blot assay; assay type: cell-based
[13] = Toxicity in BALB/c mouse xenografted with human NCI-H1975 cells assessed as change in body weight pretreated with compound at 10 mg/kg, ip administered once daily for 24 days and measured every 3 days […]; assay type: organism-based; details: in vivo, 576 h, time 24 day
[14] = AUC (0 to infinity) in Sprague-Dawley rat at 1 mg/kg, iv measured upto 24 hrs by LC-MS/MS analysis; assay type: ADME, organism-based; design: dose 1 mg/kg, time < 24 hrs, route iv; details: in vivo
[15] = test system: NCI-H1299; assay: Antiproliferative activity against human NCI-H1299 cells expressing wild type EGFR incubated for 72 hrs by CCK-8 assay; assay type: functional, cell-based; details: NCI-H1299, 72 h
[16] = Plasma protein binding in rat assessed as unbound fraction at 1 uM incubated for 4 hrs by rapid equilibrium dialysis method; assay type: ADME, cell-free; details: read-out: PPB (converted)
[17] = test system: NCI-H1299; assay: Induction of apoptosis in human NCI-H1299 cells assessed as viable cells at 1.0 uM incubated for 48 hrs by AnnexinV-FITC/propidium iodide staining based flow cytometry analysis (reference value: 98.05 % ); assay type: functional; details: read-out: Activity
[18] = test system: NCI-H1299; assay: Induction of apoptosis in human NCI-H1299 cells assessed as necrotic cells at 0.1 uM incubated for 48 hrs by AnnexinV-FITC/propidium iodide staining based flow cytometry analysis (reference value: 0.24 % ); assay type: functional
[19] = test system: Epidermal growth factor receptor (Homo sapiens), P00533 [L858R,T790M]; assay: Inhibition of EGFR L858R/T790M mutant phosphorylation in human NCI-H1975 cells preincubated under serum starvation for 8 hrs followed by compound addition measured after 48 hrs by Western blot analysis; assay type: cell-based; details: dose 10-1000 nM, DDE = dose-dependent effect
[20] = test system: HEK-293T; assay: Cytotoxicity activity against HEK293T cells upto 300 uM incubated for 72 hrs by CCK-8 assay; assay type: toxicity, cell-based; details: human
[21] = test system: NCI-H1975; assay: Inhibition of ERK phosphorylation in human NCI-H1975 cells preincubated under serum starvation for 8 hrs followed by compound addition measured after 48 hrs by Western blot analysis; assay type: cell-based; details: dose 10-1000 nM, DDE = dose-dependent effect
[22] = test system: NCI-H1975; assay: Induction of cell cycle arrest in human NCI-H1975 cells assessed as accumulation of cells in G2/M phase by PI staining based flow cytometry method; assay type: functional; details: dose 0.1-1 µM, DDE = dose-dependent effect
[23] = Half life in Sprague-Dawley rat at 1 mg/kg, iv measured upto 24 hrs by LC-MS/MS analysis; assay type: ADME, organism-based; details: in vivo
[24] = Half life in Sprague-Dawley rat at 10 mg/kg, ip measured upto 24 hrs by LC-MS/MS analysis; assay type: ADME, organism-based; details: in vivo
[25] = biological target: Protein cereblon/Epidermal growth factor receptor (Homo sapiens, UniProt P00533+Q96SW2, L858R/T790M); assay: Protac activity at CRBN/EGFR L858R/T790M mutant in human NCI-H1975 cells assessed as induction of EGFR degradation incubated for 72 hrs by Western blot analysis; assay type: cell-based
[26] = test system: NCI-H1975; assay: Induction of apoptosis in human NCI-H1975 cells assessed as early apoptotic cells at 1.0 uM incubated for 48 hrs by AnnexinV-FITC/propidium iodide staining based flow cytometry analysis (reference value: 0.11 % ); assay type: functional
[27] = test system: NCI-H1975; assay: Antitumor activity against human NCI-H1975 cells xenografted in […] mouse assessed as tumor growth inhibition at 10 mg/kg, ip administered once daily for 24 days relative to control; assay type: functional; details: NCI-H1975, 576 h, time 24 day, read-out: TGI
[28] = test system: NCI-H1299; assay: Induction of apoptosis in human NCI-H1299 cells assessed as late apoptotic cells at 0.1 uM incubated for 48 hrs by AnnexinV-FITC/propidium iodide staining based flow cytometry analysis (reference value: 1.53 % ); assay type: functional
[29] = AUC (0 to infinity) in Sprague-Dawley rat at 10 mg/kg, ip measured upto 24 hrs by LC-MS/MS analysis; assay type: ADME, organism-based; design: time < 24 hrs, dose 10 mg/kg, route ip; details: in vivo
[30] = Tmax in Sprague-Dawley rat at 10 mg/kg, ip measured upto 24 hrs by LC-MS/MS analysis; assay type: ADME, organism-based; details: in vivo
[31] = Selectivity ratio IC50 for human NCI-H1299 cells expressing wild type EGFR to human NCI-H1975 cells expressing EGFR L858R/T790M; assay type: functional
[32] = test system: NCI-H1975; assay: Induction of apoptosis in human NCI-H1975 cells assessed as necrotic cells at 1.0 uM incubated for 48 hrs by AnnexinV-FITC/propidium iodide staining based flow cytometry analysis (reference value: 3.28 % ); assay type: functional
[33] = test system: NCI-H1975; assay: Induction of apoptosis in human NCI-H1975 cells assessed as viable cells at 1.0 uM incubated for 48 hrs by AnnexinV-FITC/propidium iodide staining based flow cytometry analysis (reference value: 96.2 % ); assay type: functional; details: read-out: Activity
[34] = test system: A549; assay: Antiproliferative activity against human A549 cells expressing wild type EGFR incubated for 72 hrs by CCK-8 assay; assay type: functional, cell-based; details: A549, 72 h

Structure (SMILES)	Activity [1] [%]	IC50 [2] [nM]	viability at 0.1 µM [3] [%]	AUC(0-t) at 24 h [4] [ng·h/mL]	Activity [5]	viability at 0.1 µM [6] [%]	Activity [7] [%]	Cmax [8] [ng/mL]	Activity [9] [%]	IC50 [11] [nM]	inhibition (INH) [12] [%]	Activity [13]	IC50 [15] [nM]	fraction unbound at 4 h, 1 µM [16]	viability at 1 µM [17] [%]	Activity [18] [%]	inhibition [19]	Activity [20]	inhibition [21]	Activity [22]	further results
C#CCN(CCCC(=O)Nc1cccc2c1CN(C1CCC(=O)NC1=O)C2=O)CCN(C)c1cc(OC)c(Nc2nccc(-c3cn(C)c4ccccc34)n2)cc1NC(=O)C=C (stereo not drawn)	0.37	1120	85.6	971	Non-Toxic	98	9.3	128	0.082	46.8	56	Non-Toxic	> 100000	0.002	97.8	0.48	Dde	Non-Toxic	Dde	Dde	CL ([10]; iv, 1 mg/kg, 24 h): 34.55 mL/min/kg; AUC ([14]; 24 h): 973 ng·h/mL; half-life [23]: 2.64 h; half-life [24]: 1.85 h; EC50 [25]: 13.2 nM; Activity [26]: 0.72%; inhibition in vivo at 10 mg/kg [27]: 63.7%; Activity [28]: 1.27%; AUC(0-inf) [29]: 973 ng·h/mL; Tmax [30]: 4.5 h; Ratio IC50 [31]: 2137; Activity [32]: 15.2%; viability at 1 µM [33]: 69%; IC50 [34]: > 100000 nM
C#CCN(CCC(=O)Nc1cccc2c1CN(C1CCC(=O)NC1=O)C2=O)CCN(C)c1cc(OC)c(Nc2nccc(-c3cn(C)c4ccccc34)n2)cc1NC(=O)C=C (stereo not drawn)	2.15	1210	90.8	1540	Non-Toxic	97.7	0.96	197	0.08	58.1	58	Non-Toxic	> 100000	0.001	97.5	0.39	Dde	Non-Toxic	Dde	Dde	clearance ([10]; Sprague-Dawley): 37.1 mL/min/kg; AUC(0-inf) ([14]; Sprague-Dawley): 461 ng·h/mL; half-life [23]: 2.29 h; half-life [24]: 2.17 h; EC50 [25]: 35.5 nM; Activity [26]: 0.55%; inhibition in vivo at 10 mg/kg [27]: 55.2%; Activity [28]: 1.79%; AUC(0-inf) [29]: 1610 ng·h/mL; Tmax [30]: 4.67 h; Ratio IC50 [31]: 1721; Activity [32]: 14.3%; viability at 1 µM [33]: 50.8%; IC50 [34]: > 100000 nM
